{
  "source": "paper PMC8505397",
  "about": "“Development of peptides targeting receptor binding site of the envelope glycoprotein to contain the West Nile virus infection” (Scientific Reports, 2021)",
  "key": {"[1]": {"biological_target": "T1, interaction between rDIII and proteins of hBMECs (West Nile virus, UniProt P06935)", "T1 construct": "rDIII – recombinant domain III; made in house; host or cells: E. coli M15", "T1 sequence (P06935 584-692 limits assumed)": "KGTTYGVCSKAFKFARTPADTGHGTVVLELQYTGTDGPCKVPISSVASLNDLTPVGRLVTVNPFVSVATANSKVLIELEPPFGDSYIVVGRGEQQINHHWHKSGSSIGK", "assay": "Blocking of interaction between rDIII and proteins of hBMECs by peptides (ELISA)", "type": "binding, West Nile virus / human", "protocol": "First, concentration-dependent ELISA and Western blot were performed to get the minimum concentration of rDIII required to show its interaction with hBMECs proteins. Details are presented in Supplementary Method S12 and Supplementary Method S13. Subsequently, the ability of 7-mer and 12-mer peptides to block the interaction between rDIII and proteins of hBMECs was tested. A tenfold molar excess of peptides was incubated with rDIII for 1 h at room temperature. Such pre-incubated rDIII was subsequently used in the assays. Details of both methods are described in Supplementary Method S12 and Supplementary Method S13. […]\nBlocking of interaction between rDIII and proteins of hBMECs by peptides (ELISA). First, different concentrations of rDIII were tested to get the minimum concentration of rDIII required to show the interaction with hBMECs proteins. Protein extract of hBMECs (4 μg/well) diluted in coating buffer (0.5 M Na2CO3, 0.5 M NaHCO3; pH 9.5) was incubated in the microtiter wells for overnight at 4°C. Unbound hBMECs proteins were washed with PBS (pH 7.3) containing 0.05% Tween 20 (0.05% PBST) and non-specific binding sites were blocked with 0.5% BSA in 0.05% PBST. rDIII at different concentrations (5 µg, 2.5 µg, 2 µg, 1 µg, 500 […]\nng, 250 ng, 125 ng, and 62.5 ng) diluted in 0.05% PBST was added into wells and incubated for 3 h at room temperature and constant shaking. Wells were washed 3 times with 0.05% PBST and incubated with HisProbe-HRP conjugate (1:5,000 dilution in 0.1% BSA in 0.05% PBST; Thermo Fisher Scientific) for 30 min at room temperature and constant shaking. […] The reaction was stopped after 25 min with 2 M H2SO4 and the absorbance was measured at 450 nm. […]\nAfter blocking, the wells were washed 3 times with 0.05% PBST, pre-incubated rDIII was added and incubated for 3 h at room temperature with constant shaking. […] The reaction was stopped after 25 min with 2 M H2SO4 and the absorbance was measured at 450 nm. hBMECs proteins incubated with untreated rDIII were used as a positive control. […]"}, "hBMECs": {"system": "hBMECs", "assay": "Peptide cytotoxicity assay (XTT)", "type": "cell-based, human", "conditions": "1 μM, 2 μM, 4 μM and 6 μM; 24 h", "protocol": "The toxicity of peptides was determined by the XTT test (AppliChem, USA) as per the manufacturer’s instructions. Details are presented in Supplementary Method S15. […]\nCytotoxicity assay. hBMECs were cultured in 96-well TPP tissue culture plates (Sigma) in supplemented EBM-2 medium (Lonza) to obtain ~70% confluency (as described in Supplementary Method S1). The peptides in concentrations of 1 µM, 2 µM, 4 µM, and 6 µM (diluted in 100 µL of EBM-2 medium supplemented only with 10% FBS, 10 mM HEPES and 1 ng/mL bFGF; Sigma) were added and incubated for 24 h at 37°C in a humid atmosphere of 5% CO2. Untreated cells served as a negative control (100% viability). For positive control, cells treated with 0.01% Triton X-100 were used. After incubation, the mixture of XTT and activation reagent (5:0.1 [v/v], 50 µL each well) was added to each well and incubated for an additional 3 h at 37°C in a humid atmosphere of 5% CO2. The absorbance was measured at 450 nm. The assay was performed in replicates. The viability (%) of endothelial cells was calculated using the formula: Cell viability (%) = [(A - xA ) × 100] / (xA -"}},
  "data": [
    {"smiles": "CC[C@H](C)[C@@H]1NC(=O)[C@@H](NC(=O)[C@H](C)N)CSSC[C@@H](C(=O)NCC(=O)NCC(=O)NCC(=O)N[C@@H](CO)C(=O)O)NC(=O)[C@H](C)NC(=O)[C@H](CCCNC(=N)N)NC(=O)[C@H]([C@@H](C)O)NC(=O)[C@H](CO)NC(=O)[C@H](CO)NC(=O)[C@H](Cc2c[nH]cn2)NC1=O", "note": "[CP4, CIHSSTRAC]", "values": [
      {"measurement": "A450, rDIII binding to hBMECs proteins after pre-incubation with peptide", "setting": "[1]; pre-incubated with tenfold molar excess (1.5 nM) of peptide, positive control A450 = 1.064", "value": 0.346},
      {"measurement": "inhibition of the interaction between rDIII and hBMECs proteins", "setting": "[1]; rDIII 0.15 nM pre-incubated with tenfold molar excess (1.5 nM) of peptide, ELISA", "value": 67, "unit": "%"},
      {"measurement": "cytotoxic effect on hBMECs (XTT)", "setting": "hBMECs", "value": "None of the peptides was toxic"}
    ]}
  ]
}
